Data taken from patent US20090325891A1, “Cartilage regeneration-promoting agent” (EISAI FOOD & CHEMICAL CO., LTD., priority 2006, published 2009).

Assays:
proteoglycan = test: Image analysis of Safranin O staining (proteoglycan) of knee articular cartilage; format: in vivo, rabbit
Method: (§1) The rabbit articular cartilage injury model was prepared based on the method of Hashida et. al. (See, Macromolecular Bioscience, 3, (2003) 596-603), and Tamai et. al. (See, Carbohydrate Polymers, 48, (2002) 369-378, and Carbohydrate Polymers, 54, (2003) 251-262).
(§2) Initially, each animal was anesthetized by injecting pentobarbital sodium (40 mg/kg) intraperitoneally. Next, hairs at the knee joint of the left hind limb of the animal were clipped and disinfected with 0.5% chlorhexidine gluconate solution and 70% ethanol solution. Then, an incision was made on the skin on the lateral portion of the knee joint from the central part of the femur toward the tibial tuberosity. The articular capsule was exposed and incised. Further, the knee joint was exposed completely by dislocating the patella toward the medial side. Three holes of 2 mm size in diameter and 4 mm in depth were made by using a handdrill one at the medial trochlear ridge and two at the trochlear sulcus of the femur. The incised portion was washed with sterile saline solution and the articular capsule, and at the same time, the subcutaneous tissues and the skin were sutured with a synthetic absorbent thread and with nylon thread, respectively. During one week after the operation, the sutured portion of the skin was disinfected by povidone-iodine once a day and 10 mg/kg of oxytetracycline hydrochloride was subcutaneously administered twice a day.
(§3) After the formation of injury to articular cartilage, for the HT group, the product containing 20% by mass of hydroxytyrosol obtained in Production Example 1 was dissolved in tap water and administered using a water bottle at a rate of 500 mg/kg (100 mg/kg of hydroxytyrosol) per day for 21 days. After making sure that all of the water containing the drug was taken in, rabbits were fed with sterile tap water. The control was fed with sterile tap water ad libitum.
The specimens stained with Safranin O and with Alcian blue were prepared in the same way as mentioned above and subjected to image analysis. The 200 times magnified images of specimens were scanned into the computer using a digital camera (Olympus DP70, manufactured by Olympus Corporation). Then, two locations (20,000 pixels) were randomly sampled, and the density of the site stained in a specific color (site stained with Safranin O:
corresponding to proteoglycan, site stained with Alcian blue: corresponding to glycosaminoglycan) was measured. For the obtained values, Student's t-test was performed between the control group and the HT group.
In the same way as in Example 1, the cartilage regeneration-promoting effects were investigated with respect to hydroxytyrosol (100 mg/kg per day, HT group) and with respect to glucosamine hydrochloride (800 mg/kg per day, hereinafter, GAH group) for comparison. The control group was set in the same way as in Example 1.

[1] = tested on: articular cartilage injury of the knee in rabbits; test: Histopathological examination (hematoxylin/eosin) of injured knee articular cartilage; format: in vivo, rabbit; conditions: hematoxylin/eosin staining
Method: as §1, §2, §3
For each animal, femur was collected and fixed by a 10% neutral buffered forrnalin solution. […]

Rabbit chondrocytes = test: Hyaluronic acid production in rabbit chondrocytes; format: cell-based; conditions: culture supernatant, per number of viable cells; 12 days culture; hydroxytyrosol 100 ng/ml, glucosamine hydrochloride 4 μg/ml
Method: The promoting effects of hydroxytyrosol and glucosamine hydrochloride on the production of glycosaminoglycan and on the production of hyaluronic acid in chondrocytes were evaluated. Rabbit chondrocytes (rabbit articular chondrocytes in primary culture, F-8, Cell Garage Co., Ltd.) were washed with phosphate buffered saline solution, and then cells were released with 0.05% trypsin-EDTA solution. The released chondrocytes were cultured in DMEM medium containing 10% FBS, 100 U/ml penicillin, 100 μg/ml streptomycin, 100 μM trisodium ascorbyl-2-phosphate (available from SIGMA-ALDRICH Corp.), and 25 mM HEPES (available from Invitrogen Corporation) at 37° C. in a humidified condition with 5% CO2. […] For each group after 12 days culture, the number of viable cells was determined by WST assay. The percentage of the amount of glycosaminoglycan or hyaluronic acid produced by each experimental group, relative to the control group, was calculated according to the following formula: ((amount produced by each experimental group/number of cells of each experimental group)×100)/(amount produced by the control group/number of cells of the control group). The supernatant of cultured cells of each group was collected, and the amount of hyaluronic acid produced was measured using a measurement kit (hyaluronic acid measurement kit, available from Seikagaku Corporation).

[2] = Example 2, injured site of cartilage

Row | Compound | density at the site stained with Safranin O (proteoglycan), injured site of cartilage, vs control (proteoglycan; [2]) | density at the site stained with Safranin O, normal site and growth zone of cartilage, vs control (proteoglycan; Example 2) | histopathological findings at the site at which injury was created ([1]; Example 2) | amount of hyaluronic acid produced compared to the control group (Rabbit chondrocytes) [%] | density at the site stained with Safranin O, normal site and growth zone of cartilage, vs control (proteoglycan; Example 1) | density at the site stained with Safranin O (proteoglycan), injured site of cartilage, vs control (proteoglycan; Example 1, site of cartilage at which injury was created) | histopathological findings at the site at which injury was created ([1]; Example 1)
1 | Cl.N[C@H]1C(O)O[C@H](CO)[C@@H](O)[C@@H]1O (some centres unmarked) [GAH group, glucosamine hydrochloride, reference compound] | significant increase | no difference | almost the same findings as those of the HT group | 127.4 | – | – | –
2 | OCCc1ccc(O)c(O)c1 [HT group, 2-(3,4-Dihydroxyphenyl)ethanol] | significant increase | no difference | matured chondrocytes were found extensively | 82.9 | no difference | significant increase | matured chondrocytes were found extensively
